target: T1, GSK-3β (AA 1-420) (Homo sapiens, UniProt P49841); experiment: GSK-3 Inhibition Assay (standard coupled enzyme system); assay type: biochemical; settings: 20 nM GSK-3β, 20 μM ATP, 300 μM peptide, 30° C.
T1 construct: GSK-3β (AA 1-420)
Procedure: Compounds of the present invention were screened for their ability to inhibit GSK-3β (AA 1-420) activity using a standard coupled enzyme system (Fox et al., Protein Sci. 1998, 7, 2249). Reactions were carried out in a solution containing 100 mM HEPES (pH 7.5), 10 mM MgCl2, 25 mM NaCl, 300 μM NADH, 1 mM DTT and 1.5% DMSO. Final substrate concentrations in the assay were 20 μM ATP (Sigma Chemicals, St Louis, Mo.) and 300 μM peptide (American Peptide, Sunnyvale, Calif.). Reactions were carried out at 30° C. and 20 nM GSK-3β. Final concentrations of the components of the coupled enzyme system were 2.5 mM phosphoenolpyruvate, 300 μM NADH, 30 μg/ml pyruvate kinase and 10 μg/ml lactate dehydrogenase.
An assay stock buffer solution was prepared containing all of the reagents listed above with the exception of ATP and the test compound of the present invention. The assay stock buffer solution (175 μl) was incubated in a 96 well plate with 5 μl of the test compound of the present invention at final concentrations spanning 0.002 μM to 30 μM at 30° C. for 10 min. Typically, a 12-point titration was conducted by preparing serial dilutions (from 10 mM compound stocks) with DMSO of the test compounds of the present invention in daughter plates. The reaction was initiated by the addition of 20 μl of ATP (final concentration 20 μM). Rates of reaction were obtained using a Molecular Devices Spectramax plate reader (Sunnyvale, Calif.) over 10 min at 30° C. The Ki values were determined from the rate data as a function of inhibitor concentration.

T1 sequence (P49841 whole entry, species assumed, the tested form may be a part): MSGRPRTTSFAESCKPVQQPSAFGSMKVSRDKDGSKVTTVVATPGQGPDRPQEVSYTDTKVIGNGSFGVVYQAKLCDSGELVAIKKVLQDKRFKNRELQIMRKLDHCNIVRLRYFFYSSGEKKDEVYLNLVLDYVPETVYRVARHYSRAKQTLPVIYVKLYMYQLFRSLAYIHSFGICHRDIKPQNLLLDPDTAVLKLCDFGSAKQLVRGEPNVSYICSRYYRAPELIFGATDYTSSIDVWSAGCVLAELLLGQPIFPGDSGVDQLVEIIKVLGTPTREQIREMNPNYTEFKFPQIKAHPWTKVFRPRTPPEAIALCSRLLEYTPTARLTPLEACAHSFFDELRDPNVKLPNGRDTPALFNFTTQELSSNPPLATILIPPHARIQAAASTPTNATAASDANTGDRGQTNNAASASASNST

SMILES | Ki
Fc1ccc2[nH]nc(Nc3cc(N4CCC4)nc(C4CCCCC4)n3)c2c1 [Compound I-3] | 50 to 100 nM
Cc1cc(Nc2cc(N3CCC3)nc(C3CCCCC3)n2)n[nH]1 [Compound I-2] | < 50 nM
Fc1cnc2[nH]nc(Nc3cc(N4CCC4)nc(C4CCCCC4)n3)c2c1 [Compound I-1, N-(6-(azetidin-1-yl)-2-cyclohexylpyrimidin-4-yl)-5-fluoro-1H-pyrazolo[3,4-b]pyridin-3-amine] | < 50 nM
